Results as given in patent US20040034106A1, “Treatment of anxiety disorders” (priority 2003, published 2004).
Structures can show the parent of a compound that is named as a salt.

Test system: chronic fingernail biting
Assay: Treatment of a subject with chronic fingernail biting (Example 1)
Type: in vivo, human
Method: A subject presented with chronic fingernail biting. The subject was treated with 60 mg of tomoxetine hydrochloride, twice daily for 13 consecutive days. […] The patient's chronic fingernail biting behavior resumed upon termination of treatment with tomoxetine hydrochloride.

Structure (SMILES): CNCC[C@@H](Oc1ccccc1C)c1ccccc1 [tomoxetine hydrochloride, (R)-(−)-N-methyl-3-(2-methylphenoxy)-3-phenylpropylamine]
- chronic fingernail biting at final assessment (60 mg twice daily for 13 consecutive days, healthy appearing fingernails except for one finger): significant improvement
- chronic fingernail biting behavior upon termination of treatment (after 60 mg twice daily for 13 consecutive days was stopped): resumed
